From patent publication US7718390B2, “Toxoplasma gondii cylclic GMP dependent protein kinase G as a chemotherapeutic target for antiprotozoal agents” (priority 1999, dated 2010)
Read-outs that look alike come from different tables or passages of the source.

What was measured:
E. tenella PKG = E. tenella PKG (Eimeria tenella, UniProt Q8MMZ8); assay: biochemical; assay type: biochemical; conditions: for IC50: read-out: IC50, inhibition of PKG catalytic activity
Procedure: The enzyme inhibition assay involves adding PKG or an extract containing PKG to mixtures of enzyme substrates (one of which is radiolableled) and the test compound, each of which are present in known concentrations. The amount of the enzyme is chosen such that less than 20% of the radiolabeled substrate (usually [^32P]- or [^33P]-ATP,) is consumed during the assay. The assay is carried out with the test compound at a series of different dilution levels. After a period of incubation, the labeled portion of the ATP substrate becomes covalently attached by enzymatic action to the peptide or protein substrate. This reaction product is separated from unincorporated precursor and counted.
E. tenella PKG purified fraction (obtained as described in Example 3) (0.05 μl) is incubated for 2 hours at room temperature in 20 μl of an incubation mixture containing: 25 mM HEPES, pH 7.4, 10 mM MgCl2, 5 mM beta-mercaptoethanol, 20 mM beta-glycerophosphate (or 100 μM sodium orthovanadate), 10 μM cGMP, 2 μM ATP, 10 nM [^33P] ATP (2000 Ci/mmole), 400 μM Kemptide (or 2 mM Kemptide or 0.43 mg/ml myelin basic protein). The reaction is then quenched with 2.5 μl of 0.25 M phosphoric acid per 20 μl assay volume, and the mixture is spotted on Whatman P81 chromatography paper. The chromatography paper is allowed to dry for 2 minutes, washed 5 times for 3 min. each with 150 mls of 75 mM phosphoric acid, then washed briefly with 95% ethanol. After air drying, labeled kemptide remaining on the filter is quantitated by liquid scintillation counting.
E. tenella PKG purified fraction as described above (0.05 μl) was incubated for 2 hours at room temperature in 20 μl of an incubation mixture containing: 25 mM HEPES, pH 7.4, 10 mM MgCl2, 5 mM beta-mercaptoethanol, 20 mM beta-glycerophosphate (or 100 μM sodium orthovanadate), 10 μM cGMP, 2 μM ATP, 10 nM [^33P] ATP (2000 Ci/mmole), 400 μM Kemptide (or 2 mM Kemptide or 0.43 mg/ml myelin basic protein). […] After air drying, labeled kemptide remaining on the filter was quantitated by liquid scintillation counting.

[1] = tested on: E. tenella PKG (120 kDa protein); assay: Competitive binding assay using [3H] Inhibitor Compound; set-up: species or system Eimeria tenella; conditions: purified native PKG fraction
Procedure: PKG is incubated with appropriately diluted [^3H] Inhibitor Compound for 60 minutes on ice and free ligand is separated from bound ligand by elution through 0.8 ml G-25 gel filtration columns (purchased from AGTC). The void volume, containing ligand-bound protein, is collected and radioactivity assessed by liquid scintillation counting. For competitive binding studies, excess or appropriately diluted cold competitor(s) are added simultaneously with, or 0.01-5 minutes before, the addition of radiolabeled compound. The concentration of the test compound required to inhibit 50% (IC50) of the binding of the labeled inhibitor to the parasite drug binding protein(s) is calculated.
For the competitive binding assay PKG may be the S100 fraction, crude preparation containing PKG activity, or recombinant PKG. Generally, the PKG preparation contains 20-50 μg of protein.
The S100 fraction was dialyzed against 2 L of Buffer A (30 mM sodium phosphate, pH 7.4, 1 mM DTT, 1 mM EDTA, 20% glycerol, 10 mM sodium fluoride, 0.1 mM sodium orthovanadate) overnight at room temperature. The dialysate was centrifuged at 100,000×g for 1 hour and the pellet discarded. […]
(d) cGMP agarose affinity chromatography. […] Fractions were analyzed for [^3H]-Inhibitor Compound binding, PKG activity and by silver staining following polyacrylamide gel electrophoresis. […]

E. tenella PKG, sequence (Q8MMZ8 2-1003): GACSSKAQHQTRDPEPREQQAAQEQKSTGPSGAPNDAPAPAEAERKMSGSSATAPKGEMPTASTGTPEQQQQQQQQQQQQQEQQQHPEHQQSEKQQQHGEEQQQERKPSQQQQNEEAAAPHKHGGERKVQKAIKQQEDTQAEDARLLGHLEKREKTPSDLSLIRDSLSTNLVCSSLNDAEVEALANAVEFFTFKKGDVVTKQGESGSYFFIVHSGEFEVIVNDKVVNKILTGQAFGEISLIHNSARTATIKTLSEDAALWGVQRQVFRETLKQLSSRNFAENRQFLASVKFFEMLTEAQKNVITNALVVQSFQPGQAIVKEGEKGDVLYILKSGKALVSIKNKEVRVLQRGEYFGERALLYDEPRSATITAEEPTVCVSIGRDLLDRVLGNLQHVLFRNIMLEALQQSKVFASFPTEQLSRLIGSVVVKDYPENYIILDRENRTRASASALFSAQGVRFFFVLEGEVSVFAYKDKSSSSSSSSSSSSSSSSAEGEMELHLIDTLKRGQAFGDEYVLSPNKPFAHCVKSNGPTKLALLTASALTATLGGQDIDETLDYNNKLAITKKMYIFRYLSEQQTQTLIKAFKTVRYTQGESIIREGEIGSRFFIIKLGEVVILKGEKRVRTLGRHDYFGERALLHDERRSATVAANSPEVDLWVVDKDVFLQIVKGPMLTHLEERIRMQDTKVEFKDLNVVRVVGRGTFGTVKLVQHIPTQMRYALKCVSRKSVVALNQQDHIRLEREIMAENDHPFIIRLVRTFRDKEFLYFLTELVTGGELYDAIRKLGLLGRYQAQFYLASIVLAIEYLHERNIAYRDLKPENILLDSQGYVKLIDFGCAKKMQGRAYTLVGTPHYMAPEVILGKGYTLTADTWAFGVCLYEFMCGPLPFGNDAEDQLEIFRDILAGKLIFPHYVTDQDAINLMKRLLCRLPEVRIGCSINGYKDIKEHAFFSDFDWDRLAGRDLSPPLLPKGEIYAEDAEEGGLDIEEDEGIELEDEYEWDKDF

| Compound | IC50 (E. tenella PKG; native E. tenella PKG) [nM] | IC50 (E. tenella PKG; recombinant expressed E. tenella PKG (Et.PKG7, Sf9 cells)) [nM] | binding to the 120 kDa E. tenella protein (PKG) [1] | stimulation of kinase activity by cyclic nucleotide cofactor (E. tenella PKG; biochemically purified native E. tenella protein, compared with absence of cyclic nucleotide cofactors) |
| --- | --- | --- | --- | --- |
| CN1CCC(c2cc(-c3ccncc3)c(-c3ccc(F)cc3)[nH]2)CC1 [Inhibitor Compound, 2-(4-fluorophenyl)-5-(N-methylpiperidin-4-yl)-3-(4-pyridyl)pyrrole] | < 5 | < 5 | specifically binds |  |
| Nc1nc2c(ncn2[C@@H]2O[C@@H]3COP(=O)(O)O[C@H]3[C@H]2O)c(=O)[nH]1 [cGMP] |  |  |  | greater than 400 fold |
